Source: article PMC9290507, “Rh^II‐Catalyzed De‐symmetrization of Ethane‐1,2‐dithiol and Propane‐1,3‐dithiol Yields Metallo‐β‐lactamase Inhibitors” (Chemmedchem, 2021)

Tests used:
[1] = system: E. coli NDM‐1 (T2359); test: Intrinsic antimicrobial activity (MIC, CLSI microdilution), E. coli NDM-1; format: cell-based; details: for MIC: Escherichia coli; for Intrinsic antimicrobial activity: compound alone, E. coli transformants producing NDM-1 or VIM-1 (Table 2)
Method: (§1) Minimal inhibitory concentrations (MICs) of imipenem monohydrate (Sigma‐Aldrich)±compound 3 a, 3 o, or 3 s against transformed E. coli strains producing NDM‐1 or VIM‐1 were determined according to microdilution method established by Clinical and Laboratory Standards Institute (CLSI).^20 The checkerboard assay was performed to test for synergy in vitro. The microtiter‐plates were set up with serial doubling dilutions of compound 3 a, 3 o, or 3 s (2‐128 mg/L) and imipenem (0.125‐128 mg/L).

[2] = system: E. coli VIM‐1 (T2544); test: Checkerboard synergy assay with imipenem, E. coli VIM-1; format: cell-based; details: for Imipenem MIC: E. coli VIM-1 (T2544)
Method: (§2) To investigate this, the MIC of imipenem or combined with various concentrations of compound 3a, 3o, or 3 s was determined against E. coli transformants producing NDM‐1 or VIM‐1 (Table 3 and 4).
as §1

[3] = target: T1, VIM‐2 (Escherichia coli, UniProt Q5U7L7); test: Kd determination using isothermal titration calorimetry; format: binding; details: ITC, 250 μM compound into 50 μM VIM-2, 25 °C
T1 construct: made in house
Method: The next step was the investigation of the binding thermodynamics of 3 a, 3 o, and 3 s. For these experiments we used a closely related enzyme VIM‐2 which is an isoform of VIM‐1 and can be recombinantly expressed in very high concentrations, suitable tor isothermal titration calorimetry (ITC) experiments (Figure 6).
VIM‐2 expression and purification was published elsewhere.[19] Before the measurement the VIM‐2 protein was dialyzed against 500 times the volume of buffer (50 mM Tris, 500 mM NaCl, 5 % (v/v) glycerol with a pH=8) using a dialysis membrane with a 3.5 kDa MWCO. For the measurements the compounds 3 a, 3 o, or 3 s, respectively, were diluted using the dialyses buffer to a final concentration of 250 μM containing a final DMSO concentration of 1 %. The VIM‐2 protein was diluted to a final concentration of 50 μM, supplemented with 1 % DMSO using the dialysis buffer and pure DMSO. For the control measurements dialysis buffer was supplemented with pure DMSO to a final concentration of 1 %. The measurements were performed using an “Affinity ITC” (TA‐Instruments) in reversed mode, with a stir rate of 75 rpm and a temperature of 25 °C. The VIM‐2 was placed in the cell and the respective compound in the syringe. For blank measurements either the protein or compound dilution were exchanged with buffer containing 1 % DMSO. For the measurements of 3 a and 3 s one time 0.5 μl was injected followed by 50 injections of 2 μl with a spacing of 240 s. 3 o was measured with one injection of 0.5 μl followed by 35 injections of 2 μl with a spacing of 240 s. The data were analyzed using the “NanoAnalyze Data Analysis” software (version 3.10.0; TA‐Instruments).

[4] = target: T2, NDM‐1 (Klebsiella pneumoniae, UniProt C7C422); test: Fluorescence-based enzyme activity assay (Fluorocillin), NDM-1; format: biochemical; details: for Effect of added zinc ions on inhibitory activity (NDM-1): 10 μM compound, additional 100 μM ZnCl2 in assay buffer
T2 construct: made in house
Method: (§3) In order to investigate the structure‐activity relationships of the dithiol library, we measured the inhibitory activity of 3 a–x in a fluorescence‐based enzyme activity assay (Table 1). Two relevant β‐lactamase isoforms, NDM‐1 and VIM‐1 were selected for in vitro assays. The fluorogenic substrate fluorocillin[15] was prepared according to literature and its conversion was monitored as described previously.[6] In general, a linear relationship between the potency of 3 a–x towards both enzymes could be observed, however, inhibitory potency towards VIM‐1 was almost tenfold higher (Figure 3). A very clear preference for the propane‐1,3‐dithiol over ethane‐1,2‐dithiol compounds could be observed from matched molecular pairs.
(§4) Activity assays for MBLs were performed at room temperature in black polystyrol 96well plates (Corning, Corning, NY, USA) using dicefalotinodifluorofluorescein (Fluorocillin) as a substrate. Proteins were diluted in assay buffer (HEPES 50 mM, pH 7.5 containing 0.01 %Triton X‐100), with final protein concentrations of NDM‐1: 3 nM, or VIM‐1: 4 nM. Samples were supplemented with an equimolar amount of ZnCl2. An amount of 1 μL of compounds 3 a–3 x at different concentrations was incubated with 89 μL of enzyme in assay buffer. After an incubation period of 30 min at room temperature, 10 μL of Fluorocillin substrate was added to yield the final assay volume of 100 μL. Final concentration of DMSO was 1 %. The fluorescence emitted by the fluorescent product difluorofluorescein was monitored every 45 s for 30 cycles using a Tecan fluorescent plate reader (Infinite 200; excitation at 495 nm and emission at 525 nm) and was compared with a standard curve. The rate of the enzymatic reaction was obtained by dividing the quantity of the fluorescent product (RFU) by time (min). Negative controls were measured in the absence of enzyme, whereas the positive controls were measured in the presence of enzyme and in the absence of inhibitors. The inhibitory effect of each substance was measured in triplicate in three independent experiments. IC50 values were calculated using data obtained from measurements with at least eight different inhibitor concentrations, applying a sigmoidal dose–response (variable slope with four parameters) equation using GraphPad Prism 5 (GraphPad Software, La Jolla, CA, USA) software. In order to investigate the inhibitory activity of 3 a, 3 o, or 3 s in the presence of a high Zn^2+ concentration, assay buffer containing an additional 100 μM ZnCl2 was used. The assay was performed as described above with NDM‐1 or VIM‐1 and 10 μM of 3 a, 3 o, or 3 s.

[5] = system: E. coli NDM‐1 (T2359); test: Checkerboard synergy assay with imipenem, E. coli NDM-1; format: cell-based; details: for Imipenem MIC: E. coli NDM-1 (T2359)
Method: as §2, §1

[6] = system: E. coli VIM‐1 (T2544); test: Intrinsic antimicrobial activity (MIC, CLSI microdilution), E. coli VIM-1; format: cell-based; details: Escherichia coli
Method: as §1

[7] = target: T3, VIM‐1 (Pseudomonas aeruginosa, UniProt A0A0F7KYQ8); test: Fluorescence-based enzyme activity assay (Fluorocillin), VIM-1; format: biochemical; details: for Effect of added zinc ions on inhibitory activity (VIM-1): 10 μM compound, additional 100 μM ZnCl2 in assay buffer
T3 construct: made in house
Method: as §3, §4

T2 sequence (C7C422 29-270, looked up, species assumed): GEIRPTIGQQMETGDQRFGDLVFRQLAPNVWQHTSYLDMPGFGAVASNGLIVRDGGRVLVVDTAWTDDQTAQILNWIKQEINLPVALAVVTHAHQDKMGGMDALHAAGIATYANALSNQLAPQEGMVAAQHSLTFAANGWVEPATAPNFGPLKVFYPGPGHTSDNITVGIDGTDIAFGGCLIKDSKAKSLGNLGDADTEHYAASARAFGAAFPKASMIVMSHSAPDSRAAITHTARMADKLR

| Compound | MIC [1] | Intrinsic antimicrobial activity [1] | Imipenem MIC ([2]; +2 μg/ml compound) | Imipenem MIC ([2]; +4 μg/ml compound) | Imipenem MIC ([2]; +8 μg/ml compound) | Imipenem MIC ([2]; +16 μg/ml compound) | Imipenem MIC ([2]; +32 μg/ml compound) | Imipenem MIC ([2]; +64 μg/ml compound) | Imipenem MIC ([2]; +128 μg/ml compound) | Kd ([3]; inset of Figure 6) | IC50 [4] | Effect of added zinc ions on inhibitory activity (NDM-1) [4] | Imipenem MIC ([5]; +2 μg/ml compound) | Imipenem MIC ([5]; +4 μg/ml compound) | Imipenem MIC ([5]; +8 μg/ml compound) | Imipenem MIC ([5]; +16 μg/ml compound) | Imipenem MIC ([5]; +32 μg/ml compound) | Imipenem MIC ([5]; +64 μg/ml compound) | Imipenem MIC ([5]; +128 μg/ml compound) | MIC [6] | also measured |
| --- | --- | --- | --- | --- | --- | --- | --- | --- | --- | --- | --- | --- | --- | --- | --- | --- | --- | --- | --- | --- | --- |
| O=C1C(SCCCS)CCN1c1ccccc1 (stereo not drawn) [3 o, 3‐((3‐Mercaptopropyl)thio)‐1‐phenylpyrrolidin‐2‐one] | > 512 µg/mL | no intrinsic antimicrobial activity | 16 µg/mL | 16 µg/mL | 16 µg/mL | 16 µg/mL | 8 µg/mL | 2 µg/mL | 1 µg/mL | 534 nM | 300 ± 40 nM | does not impair the inhibitory activity | 128 µg/mL | 128 µg/mL | 128 µg/mL | 128 µg/mL | 32 µg/mL | 32 µg/mL | 16 µg/mL | > 512 µg/mL | Reduction of the MIC of imipenem ([2]; VIM-1 producing bacteria, maximal reduction): ≤ 32 fold; ΔH [3]: -11.7 kcal/mol; Reduction of the MIC of imipenem ([5]; NDM-1 producing bacteria, maximal reduction): up to 8 fold; IC50 [7]: 20 nM; Effect of added zinc ions on inhibitory activity (VIM-1) [7]: does not impair the inhibitory activity |
| O=C1CCCC1SCCCS (stereo not drawn) [3 a, 2‐((3‐Mercaptopropyl)thio)cyclopentanone] | > 512 µg/mL | no intrinsic antimicrobial activity | 32 µg/mL | 32 µg/mL | 16 µg/mL | 16 µg/mL | 16 µg/mL | 16 µg/mL | 8 µg/mL | 878 nM | 480 ± 70 nM | does not impair the inhibitory activity | 128 µg/mL | 128 µg/mL | 128 µg/mL | 64 µg/mL | 64 µg/mL | 64 µg/mL | 32 µg/mL | > 512 µg/mL | Kd [3]: 880 nM; IC50 [7]: 170 ± 40 nM; Effect of added zinc ions on inhibitory activity (VIM-1) [7]: does not impair the inhibitory activity |
